Reference: patent US10717742B2, “Spiro[3H-indole-3,2′-pyrrolidin]-2(1H)-one compounds and derivatives as MDM2-P53 inhibitors” (Boehringer Ingelheim International GmbH, priority 2015, dated 2020)

These compounds were tested against p53-MDM2 interaction (GST-MDM2 protein aa 23-117 / biotinylated p53 wt peptide) (Homo sapiens (Human), UniProt Q00987) (assay: Mdm2-p53 Inhibition AlphaScreen). Conditions: GST-MDM2 (aa 23-117) / biotinylated p53 wt peptide.
Chain of p53-MDM2 interaction (GST-MDM2 protein aa 23-117 / biotinylated p53 wt peptide) (Q00987 23-117): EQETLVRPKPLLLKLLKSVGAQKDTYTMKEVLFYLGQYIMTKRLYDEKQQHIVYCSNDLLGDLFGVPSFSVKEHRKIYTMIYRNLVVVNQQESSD
Format: binding
Procedure: Mdm2-p53 Inhibition AlphaScreen
15 μL of compound in 20% DMSO (serial pre-dilutions of compound are done in 100% DMSO) is pipetted to the wells of a white OptiPlate-96 (Perkin Elmer). A mix consisting of 20 nM GST-MDM2 protein (aa 23-117) and 20 nM biotinylated p53 wt peptide (encompassing aa 16-27 of wt human p53, amino acid sequence […]-Ttds-Lys-Biotin, molecular weight 2132.56 g/mol) is prepared in assay buffer (50 mM Tris/HCl pH 7.2; 120 mM NaCl; 0.1% bovine serum albumin (BSA); 5 mM dithiothreitol (DTT); 1 mM ethylenediaminetetraacetic acid (EDTA); 0.01% Tween 20). 30 μL of the mix is added to the compound dilutions and incubated for 15 min at rt while gently shaking the plate at 300 rounds per minute (rpm). Subsequently, 15 μL of premixed AlphaLISA Glutathione Acceptor Beads and AlphaScreen Streptavidin Donor Beads from PerkinElmer (in assay buffer at a concentration of 10 μg/mL each) are added and the samples are incubated for 30 min at rt in the dark (shaking 300 rpm). Afterwards, the signal is measured in a PerkinElmer Envision HIS Multilabel Reader using the AlphaScreen protocol from Perkin Elmer.
Each plate contains negative controls where biotinylated p53-peptide and GST-MDM2 are left out and replaced by assay buffer. Negative control values are entered as low basis value when using the software GraphPad Prism for calculations. Furthermore, a positive control (5% DMSO instead of test compound; with protein/peptide mix) is pipetted. Determination of IC50 values are carried out using GraphPad Prism 3.03 software (or updates thereof).
Work on `COC(=O)c1ccc2c3n(nc2c1C)[C@@H]1[C@H](C3)N(CC2CC2)[C@@]2(C(=O)Nc3cc(Cl)ccc32)[C@H]1c1cccc(Cl)c1F` [Ia-20] yielded an IC50 of 23 nM.
Work on `O=C(O)c1ccc2c3n(nc2c1)[C@@H]1[C@H](C3)N(CC2CC2)[C@@]2(C(=O)Nc3cc(Cl)ccc32)[C@H]1c1cccc(Cl)c1F` [Ia-25] yielded an IC50 of 2 nM.
`O=C(O)c1ccc2c3n(nc2c1)[C@@H]1[C@H](C3)N(CC2CCC2)[C@@]2(C(=O)Nc3cc(Cl)ccc32)[C@H]1c1cccc(Cl)c1F` [Ia-26] showed an IC50 of 4 nM.
In the case of `CC(C)CN1[C@H]2Cc3c4ccc(C(=O)O)cc4nn3[C@H]2[C@H](c2cccc(Cl)c2F)[C@]12C(=O)Nc1cc(Cl)ccc12` [Ia-27], the IC50 is reported as 2 nM.
With `CCCN1[C@H]2Cc3c4ccc(C(=O)O)cc4nn3[C@H]2[C@H](c2cccc(Cl)c2F)[C@]12C(=O)Nc1cc(Cl)ccc12` [Ia-29] the IC50 was 2 nM.
With `CCN1[C@H]2Cc3c4ccc(C(=O)O)cc4nn3[C@H]2[C@H](c2cccc(Cl)c2F)[C@]12C(=O)Nc1cc(Cl)ccc12` [Ia-30] the IC50 was 2 nM.
With `COCCN1[C@H]2Cc3c4ccc(C(=O)O)cc4nn3[C@H]2[C@H](c2cccc(Cl)c2F)[C@]12C(=O)Nc1cc(Cl)ccc12` [Ia-31] the IC50 was 3 nM.
`CCOc1cccc(CN2[C@H]3Cc4c5ccc(C(=O)O)cc5nn4[C@H]3[C@H](c3cccc(Cl)c3F)[C@]23C(=O)Nc2cc(Cl)ccc23)c1` [Ia-32] gave an IC50 of 2 nM.
Compound `Cc1cc2c3n(nc2cc1C(=O)O)[C@@H]1[C@H](C3)N(CC2CC2)[C@@]2(C(=O)Nc3cc(Cl)ccc32)[C@H]1c1cccc(Cl)c1F` [Ia-33] has an IC50 of 3 nM.
Work on `Cc1c(C(=O)O)ccc2c3n(nc12)[C@@H]1[C@H](C3)N(CC2CC2)[C@@]2(C(=O)Nc3cc(Cl)ccc32)[C@H]1c1cccc(Cl)c1F` [Ia-34] yielded an IC50 of 2 nM.
In the case of `COc1cc2c3n(nc2cc1C(=O)O)[C@@H]1[C@H](C3)N(CC2CC2)[C@@]2(C(=O)Nc3cc(Cl)ccc32)[C@H]1c1cccc(Cl)c1F` [Ia-35], the IC50 is reported as 2 nM.
`COc1c(C(=O)O)ccc2c3n(nc12)[C@@H]1[C@H](C3)N(CC2CC2)[C@@]2(C(=O)Nc3cc(Cl)ccc32)[C@H]1c1cccc(Cl)c1F` [Ia-36] gave an IC50 of 5 nM.
Work on `O=C(O)c1ccc2nn3c(c2c1)C[C@H]1[C@@H]3[C@H](c2cccc(Cl)c2F)[C@]2(C(=O)Nc3cc(Cl)ccc32)N1CC1CC1` [Ia-38] yielded an IC50 of 2 nM.
Work on `Cc1cc2c3n(nc2cc1C(=O)O)[C@@H]1[C@H](C3)N(CC(C)C)[C@@]2(C(=O)Nc3cc(Cl)ccc32)[C@H]1c1cccc(Cl)c1F` [Ia-39] yielded an IC50 of 4 nM.
Compound `CCOc1cccc(CN2[C@H]3Cc4c5cc(C)c(C(=O)O)cc5nn4[C@H]3[C@H](c3cccc(Cl)c3F)[C@]23C(=O)Nc2cc(Cl)ccc23)c1` [Ia-40] has an IC50 of 2 nM.
`O=C(O)c1ccc2c3n(nc2c1)[C@@H]1[C@H](C3)N(CC2CC2)[C@@]2(C(=O)Nc3cc(Cl)ccc32)[C@H]1c1ccnc(Cl)c1F` [Ia-41] gave an IC50 of 3 nM.
Work on `O=C(O)c1ccc2c3n(nc2c1)[C@@H]1[C@H](C3)N(CC2CC2)[C@@]2(C(=O)Nc3nc(Cl)ccc32)[C@H]1c1cccc(Cl)c1F` [Ia-43] yielded an IC50 of 2 nM.
`CC(C)(O)CNC(=O)c1ccc2c3n(nc2c1)[C@@H]1[C@H](C3)N(CC2CCC2)[C@@]2(C(=O)Nc3cc(Cl)ccc32)[C@H]1c1cccc(Cl)c1F` [Ia-46] was tested, and the IC50 was 8 nM.
With `O=C(NC1CC1)c1ccc2c3n(nc2c1)[C@@H]1[C@H](C3)N(CC2CCC2)[C@@]2(C(=O)Nc3cc(Cl)ccc32)[C@H]1c1cccc(Cl)c1F` [Ia-47] the IC50 was 9 nM.
`COCC(COC)NC(=O)c1ccc2c3n(nc2c1)[C@@H]1[C@H](C3)N(CC2CCC2)[C@@]2(C(=O)Nc3cc(Cl)ccc32)[C@H]1c1cccc(Cl)c1F` [Ia-48] gave an IC50 of 10 nM.
Work on `COCCOCCNC(=O)c1ccc2c3n(nc2c1)[C@@H]1[C@H](C3)N(CC2CCC2)[C@@]2(C(=O)Nc3cc(Cl)ccc32)[C@H]1c1cccc(Cl)c1F` [Ia-49] yielded an IC50 of 6 nM.
In the case of `CCN1[C@H]2Cc3c4ccc(C(=O)NCCO)cc4nn3[C@H]2[C@H](c2cccc(Cl)c2F)[C@]12C(=O)Nc1cc(Cl)ccc12` [Ia-50], the IC50 is reported as 4 nM.
`CCN1[C@H]2Cc3c4ccc(C(=O)NCCN(C)C)cc4nn3[C@H]2[C@H](c2cccc(Cl)c2F)[C@]12C(=O)Nc1cc(Cl)ccc12` [Ia-51] was tested, and the IC50 was 7 nM.
With `CCN1[C@H]2Cc3c4ccc(C(=O)N5CCCCC5)cc4nn3[C@H]2[C@H](c2cccc(Cl)c2F)[C@]12C(=O)Nc1cc(Cl)ccc12` [Ia-52] the IC50 was 69 nM.
With `CCN1[C@H]2Cc3c4ccc(C(=O)NC5(C)COC5)cc4nn3[C@H]2[C@H](c2cccc(Cl)c2F)[C@]12C(=O)Nc1cc(Cl)ccc12` [Ia-53] the IC50 was 7 nM.
`CCOc1cccc(CN2[C@H]3Cc4c5cc(C)c(C(=O)N6CCOCC6)cc5nn4[C@H]3[C@H](c3cccc(Cl)c3F)[C@]23C(=O)Nc2cc(Cl)ccc23)c1` [Ia-54] gave an IC50 of 13 nM.
For `CCOc1cccc(CN2[C@H]3Cc4c5cc(C)c(C(=O)NCCOC)cc5nn4[C@H]3[C@H](c3cccc(Cl)c3F)[C@]23C(=O)Nc2cc(Cl)ccc23)c1` [Ia-55], the IC50 was 6 nM.
Compound `CCOc1cccc(CN2[C@H]3Cc4c5cc(C)c(C(=O)NC)cc5nn4[C@H]3[C@H](c3cccc(Cl)c3F)[C@]23C(=O)Nc2cc(Cl)ccc23)c1` [Ia-56] has an IC50 of 5 nM.
In the case of `CCOc1cccc(CN2[C@H]3Cc4c5cc(C)c(C(=O)N(C)C)cc5nn4[C@H]3[C@H](c3cccc(Cl)c3F)[C@]23C(=O)Nc2cc(Cl)ccc23)c1` [Ia-57], the IC50 is reported as 13 nM.
For `CCOc1cccc(CN2[C@H]3Cn4c(nc5cc(C(=O)OC)ccc54)[C@H]3[C@H](c3cccc(Cl)c3F)[C@]23C(=O)Nc2cc(Cl)ccc23)c1` [Ib-49], the IC50 was 5 nM.
In the case of `CS(=O)(=O)c1ccc2c(c1)nc1n2CC[C@H]2[C@@H]1[C@H](c1cccc(Cl)c1F)[C@]1(C(=O)Nc3cc(Cl)ccc31)N2CC1CC1` [Ib-57], the IC50 is reported as 12 nM.
With `CS(=O)(=O)c1ccc2c(c1)nc1n2CC[C@H]2[C@@H]1[C@H](c1cccc(Cl)c1F)[C@]1(C(=O)Nc3cc(Cl)ccc31)N2CC1CC1` [Ib-58] the IC50 was 7 nM.
Compound `CC(=O)Nc1ccc2c(c1)nc1n2CC[C@H]2[C@@H]1[C@H](c1cccc(Cl)c1F)[C@]1(C(=O)Nc3cc(Cl)ccc31)N2CC1CC1` [Ib-59] has an IC50 of 15 nM.
`COC(=O)c1ccc2c(c1)nc1n2CC[C@H]2[C@@H]1[C@H](c1cccc(Cl)c1F)[C@]1(C(=O)Nc3cc(Cl)ccc31)N2CC=C(C)C` [Ib-66] was tested, and the IC50 was 166 nM.
With `O=C(O)c1ccc2c(c1)nc1n2CC[C@H]2[C@@H]1[C@H](c1cccc(Cl)c1F)[C@]1(C(=O)Nc3cc(Cl)ccc31)N2CC1CC1` [Ib-106] the IC50 was 3 nM.
With `O=C(O)c1ccc2c(c1)nc1n2CC[C@H]2[C@@H]1[C@H](c1cccc(Cl)c1F)[C@]1(C(=O)Nc3cc(Cl)ccc31)N2CC1CC1` [Ib-107] the IC50 was 2 nM.
In the case of `O=C(O)c1ccc2c(c1)nc1n2CC[C@@H]2[C@H]1[C@@H](c1cccc(Cl)c1F)[C@@]1(C(=O)Nc3cc(Cl)ccc31)N2CC1CC1` [Ib-108], the IC50 is reported as 79 nM.
Work on `CC(C)CN1[C@H]2CCn3c(nc4cc(C(=O)O)ccc43)[C@H]2[C@H](c2cccc(Cl)c2F)[C@]12C(=O)Nc1cc(Cl)ccc12` [Ib-109] yielded an IC50 of 8 nM.
`CC(C)CN1[C@H]2CCn3c(nc4cc(C(=O)O)ccc43)[C@H]2[C@H](c2cccc(Cl)c2F)[C@]12C(=O)Nc1cc(Cl)ccc12` [Ib-110] gave an IC50 of 3 nM.
Work on `CCN1[C@H]2CCn3c(nc4cc(C(=O)O)ccc43)[C@H]2[C@H](c2cccc(Cl)c2F)[C@]12C(=O)Nc1cc(Cl)ccc12` [Ib-111] yielded an IC50 of 7 nM.
`CCCN1[C@H]2CCn3c(nc4cc(C(=O)O)ccc43)[C@H]2[C@H](c2cccc(Cl)c2F)[C@]12C(=O)Nc1cc(Cl)ccc12` [Ib-113] showed an IC50 of 4 nM.
`CCCCN1[C@H]2CCn3c(nc4cc(C(=O)O)ccc43)[C@H]2[C@H](c2cccc(Cl)c2F)[C@]12C(=O)Nc1cc(Cl)ccc12` [Ib-115] showed an IC50 of 7 nM.
For `CCCCCN1[C@H]2CCn3c(nc4cc(C(=O)O)ccc43)[C@H]2[C@H](c2cccc(Cl)c2F)[C@]12C(=O)Nc1cc(Cl)ccc12` [Ib-117], the IC50 was 8 nM.
Compound `CC(C)CCN1[C@H]2CCn3c(nc4cc(C(=O)O)ccc43)[C@H]2[C@H](c2cccc(Cl)c2F)[C@]12C(=O)Nc1cc(Cl)ccc12` [Ib-119] has an IC50 of 12 nM.
With `CC(C)=CCN1[C@H]2CCn3c(nc4cc(C(=O)O)ccc43)[C@H]2[C@H](c2cccc(Cl)c2F)[C@]12C(=O)Nc1cc(Cl)ccc12` [Ib-121] the IC50 was 11 nM.
Compound `O=C(O)c1ccc2c(c1)nc1n2CC[C@H]2[C@@H]1[C@H](c1cccc(Cl)c1F)[C@]1(C(=O)Nc3cc(Cl)ccc31)N2CC1CCC1` [Ib-123] has an IC50 of 4 nM.
In the case of `O=C(O)c1ccc2c(c1)nc1n2CC[C@H]2[C@@H]1[C@H](c1cccc(Cl)c1F)[C@]1(C(=O)Nc3cc(Cl)ccc31)N2CC1CC(F)(F)C1` [Ib-125], the IC50 is reported as 14 nM.
`COCCN1[C@H]2CCn3c(nc4cc(C(=O)O)ccc43)[C@H]2[C@H](c2cccc(Cl)c2F)[C@]12C(=O)Nc1cc(Cl)ccc12` [Ib-127] showed an IC50 of 11 nM.
Compound `CC(C)OCCN1[C@H]2CCn3c(nc4cc(C(=O)O)ccc43)[C@H]2[C@H](c2cccc(Cl)c2F)[C@]12C(=O)Nc1cc(Cl)ccc12` [Ib-129] has an IC50 of 10 nM.
With `CC(C)(C)OCCN1[C@H]2CCn3c(nc4cc(C(=O)O)ccc43)[C@H]2[C@H](c2cccc(Cl)c2F)[C@]12C(=O)Nc1cc(Cl)ccc12` [Ib-131] the IC50 was 22 nM.
`CS(=O)(=O)CCCN1[C@H]2CCn3c(nc4cc(C(=O)O)ccc43)[C@H]2[C@H](c2cccc(Cl)c2F)[C@]12C(=O)Nc1cc(Cl)ccc12` [Ib-133] showed an IC50 of 58 nM.
